This passage reports Activity, IC50 and inhibition results from ChEMBL document CHEMBL4330150, “Synthesis and biological evaluation of pyrazole linked benzothiazole-β-naphthol derivatives as topoisomerase I inhibitors with DNA binding ability” (Bioorg Med Chem, 2019).

The subject of assay [1] is HeLa. The experiment in a line: Cell cycle arrest in human HeLa cells assessed as accumulation at S phase at 2.5 uM after 48 hrs by propidium iodide staining based FACS analysis (reference value: 5.58%). The assay is classed as functional.
The subject of assay [2] is Calf thymus DNA. The experiment in a line: Binding affinity to calf thymus DNA assessed as hypochromicity shift in positive band at DNA to compound ratio of 1:2 by CD spectral analysis. In kind it is nucleic-acid assay. As to conditions: Bos taurus.
The next assay deals with A549. Briefly: Antiproliferative activity against human A549 cells after 48 hrs by MTT assay. In kind it is functional, cell-based. As to conditions: A549, 48 h.
The subject of assay [3] is HeLa. Briefly: Cell cycle arrest in human HeLa cells assessed as accumulation at sub-G1 phase at 5 uM after 48 hrs by propidium iodide staining based FACS analysis (reference value: 1.69%). The assay is classed as functional.
A further assay deals with MCF7. The experiment in a line: Antiproliferative activity against human MCF7 cells after 48 hrs by MTT assay. In kind it is functional, cell-based. To be noted: MCF7, 48 h.
Assay [4] relates to HeLa. Briefly: Cell cycle arrest in human HeLa cells assessed as accumulation at sub-G1 phase at 2.5 uM after 48 hrs by propidium iodide staining based FACS analysis (reference value: 1.69%). In kind it is functional.
The test system of assay [5] is HeLa. Briefly: Antiproliferative activity against human HeLa cells after 48 hrs by MTT assay. In kind it is functional, cell-based.
Assay [6] deals with HeLa. The experiment in a line: Cell cycle arrest in human HeLa cells assessed as accumulation at G1 phase at 2.5 uM after 48 hrs by propidium iodide staining based FACS analysis (reference value: 73.5%). The assay is classed as functional.
For assay [7], the system named is Calf thymus DNA. Briefly: Binding affinity to calf thymus DNA assessed as hypochromicity at 10 uM by UV-Visible spectrophotometric method. The assay is classed as nucleic-acid assay. To be noted: Bos taurus.
Assay [8] has as its system Calf thymus DNA. Briefly: Binding affinity to calf thymus DNA assessed as hypochromicity shift in positive band at DNA to compound ratio of 1:1 by CD spectral analysis. In kind it is nucleic-acid assay. To be noted: Bos taurus.
Another assay has as its system HEK293. Briefly: Antiproliferative activity against HEK293 cells after 48 hrs by MTT assay. The assay is classed as cell-based. To be noted: Homo sapiens, HEK293, 48 h.
Assay [9] relates to Calf thymus DNA. The experiment in a line: Binding affinity to calf thymus DNA assessed as DNA intercalation by measuring increase in viscosity at 15 uM by Ostwald viscometric method. In kind it is nucleic-acid assay. To be noted: Bos taurus.
The test system of assay [10] is HeLa. Briefly: Cell cycle arrest in human HeLa cells assessed as accumulation at S phase at 5 uM after 48 hrs by propidium iodide staining based FACS analysis (reference value: 5.58%). In kind it is functional.
Assay [11] deals with HeLa. Briefly: Cell cycle arrest in human HeLa cells assessed as accumulation at G2/M phase at 2.5 uM after 48 hrs by propidium iodide staining based FACS analysis (reference value: 13.9%). In kind it is functional.
For assay [12], the system named is Calf thymus DNA. Briefly: Binding affinity to calf thymus DNA assessed as hypochromicity shift in negative band at DNA to compound ratio of 1:1 to 1:2 by CD spectral analysis. The assay is classed as nucleic-acid assay. As to conditions: Bos taurus.
The target in assay [13] is T1, DNA topoisomerase 1 (Homo sapiens) (UniProt P11387).
T1 sequence (whole entry): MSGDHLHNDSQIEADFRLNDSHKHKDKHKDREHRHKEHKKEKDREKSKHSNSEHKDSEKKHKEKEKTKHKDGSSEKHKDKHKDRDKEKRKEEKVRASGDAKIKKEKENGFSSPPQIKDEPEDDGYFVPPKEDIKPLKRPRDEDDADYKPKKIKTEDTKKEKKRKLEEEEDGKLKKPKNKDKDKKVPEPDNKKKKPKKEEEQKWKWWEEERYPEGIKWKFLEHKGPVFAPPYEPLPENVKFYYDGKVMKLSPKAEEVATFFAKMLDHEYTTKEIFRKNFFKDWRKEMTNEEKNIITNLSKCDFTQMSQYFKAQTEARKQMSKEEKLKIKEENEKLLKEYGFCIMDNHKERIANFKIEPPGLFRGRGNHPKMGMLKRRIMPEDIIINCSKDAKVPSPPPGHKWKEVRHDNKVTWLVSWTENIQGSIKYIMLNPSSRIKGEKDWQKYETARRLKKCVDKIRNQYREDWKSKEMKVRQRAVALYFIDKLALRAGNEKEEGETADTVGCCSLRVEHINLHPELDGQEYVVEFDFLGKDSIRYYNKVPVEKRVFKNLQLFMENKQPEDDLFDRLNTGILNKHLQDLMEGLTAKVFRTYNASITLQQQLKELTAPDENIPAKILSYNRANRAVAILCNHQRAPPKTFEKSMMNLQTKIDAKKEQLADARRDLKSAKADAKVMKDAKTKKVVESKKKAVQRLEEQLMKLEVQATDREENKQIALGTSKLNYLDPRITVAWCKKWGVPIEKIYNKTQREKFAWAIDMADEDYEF
The experiment in a line: Inhibition of topoisomerase-1 (unknown origin) at 100 uM using pBR322 DNA as substrate after 30 mins by agarose gel electrophoresis method.

The subject of assay [14] is HeLa. The experiment in a line: Cell cycle arrest in human HeLa cells assessed as accumulation at G1 phase at 5 uM after 48 hrs by propidium iodide staining based FACS analysis (reference value: 73.5%). The assay is classed as functional.
The subject of assay [15] is HeLa. The experiment in a line: Cell cycle arrest in human HeLa cells assessed as accumulation at G2/M phase at 5 uM after 48 hrs by propidium iodide staining based FACS analysis (reference value: 13.9%). In kind it is functional.
Assay [16] concerns Calf thymus DNA. The experiment in a line: Binding affinity to calf thymus DNA assessed as hypochromicity shift at 10 uM by fluorescence spectral analysis. In kind it is nucleic-acid assay. As to conditions: Bos taurus.
The subject of assay [17] is Calf thymus DNA. The experiment in a line: Binding affinity to calf thymus DNA assessed as DNA intercalation by measuring increase in viscosity at 5 uM by Ostwald viscometric method. In kind it is nucleic-acid assay. To be noted: Bos taurus.

Active and inactive are the calls of the source. The rule behind the calls is not given here.

As for `COc1ccc2nc(NC(c3cn(-c4ccccc4)nc3-c3ccc(Cl)cc3)c3c(O)ccc4ccccc34)sc2c1` (stereo not drawn), the Activity in the assay on HeLa [1] is on record as 8.89%; in the assay on HeLa [3] it was 2.03%; in the assay on HeLa [4], 2.33%; with HeLa [6] it was 66.2%; with HeLa [10] it was 9.03%; in the assay on HeLa [11], 19.9%. The Activity was determined as 66.5% with HeLa [14], 20% with HeLa [15] and 507 nm with Calf thymus DNA [16]. The outcome in the assay with Calf thymus DNA [2], in the assay on Calf thymus DNA [7], in the assay with Calf thymus DNA [8] and in the assay on Calf thymus DNA [12] was Active. In addition, the IC50 came to 34.5 µM with A549, 23.7 µM in the assay with MCF7, 5.2 µM in the assay on HeLa [5] and 56 µM in the assay on HEK293. The outcome with Calf thymus DNA [9] was inactive. Further, the inhibition entry in assay [13] was “Active”.
On to `CC[n+]1c(-c2ccccc2)c2cc(N)ccc2c2ccc(N)cc21`, for which the outcome in the assay on Calf thymus DNA [17] was Active.
For `COc1ccc2nc(NC(c3cn(-c4ccccc4)nc3-c3ccc(F)cc3)c3c(O)ccc4ccccc34)sc2c1` (stereo not drawn), the Activity in the assay on HeLa [1] is 11.5%; in the assay with HeLa [3] it was 3.09%; in the assay on HeLa [4] it was 2.79%; with HeLa [6] it was 57.5%; in the assay on HeLa [10], 5.08%; in the assay on HeLa [11], 25.3%. Further, the Activity is 60% in the assay on HeLa [14], 28.2% in the assay with HeLa [15] and 507 nm in the assay on Calf thymus DNA [16]. Moreover, the result with Calf thymus DNA [2], in the assay with Calf thymus DNA [7], in the assay with Calf thymus DNA [8] and in the assay with Calf thymus DNA [12] was Active. Further, the 50% inhibitory concentration (IC50) was 33.6 µM in the assay with A549, 16.9 µM in the assay with MCF7, 4.63 µM with HeLa [5] and 58.1 µM in the assay with HEK293. Further, the outcome with Calf thymus DNA [9] was inactive. The inhibition entry in [13] was “Active”.
As for `Oc1ccc2ccccc2c1C(Nc1nc2ccc(Cl)cc2s1)c1cn(-c2ccccc2)nc1-c1ccc(I)cc1` (stereo not drawn), the IC50 was found to be 29 µM with A549, 65 µM in the assay with MCF7 and 12.1 µM in the assay with HeLa [5].
In the same order, the values of `Oc1ccc2ccccc2c1C(Nc1nc2ccccc2s1)c1cn(-c2ccccc2)nc1-c1ccccc1` (stereo not drawn) are 36.2 µM, 48.9 µM and 17.3 µM.
For `O=[N+]([O-])c1cccc(-c2nn(-c3ccccc3)cc2C(Nc2nc3ccccc3s2)c2c(O)ccc3ccccc23)c1` (stereo not drawn) the same measures were 32 µM, 43.9 µM and 8.22 µM.
For `Cc1cc2nc(NC(c3cn(-c4ccccc4)nc3-c3ccc([N+](=O)[O-])cc3)c3c(O)ccc4ccccc34)sc2cc1C` (stereo not drawn) the same measures were 41.9 µM, 41.1 µM and 14.7 µM.
Take `Oc1ccc2ccccc2c1C(Nc1nc2ccc(Cl)cc2s1)c1cn(-c2ccccc2)nc1-c1ccc(Cl)cc1` (stereo not drawn): the IC50 was 54.1 µM in the assay on A549, 27.5 µM with MCF7 and 36.8 µM in the assay with HeLa [5].
In the same order, the values of `O=[N+]([O-])c1ccc(-c2nn(-c3ccccc3)cc2C(Nc2nc3ccccc3s2)c2c(O)ccc3ccccc23)cc1` (stereo not drawn) are 41.2 µM, 14.7 µM and 6.81 µM.
Turning to `CN1CCN(c2ccc3[nH]c(-c4ccc5[nH]c(-c6ccc(O)cc6)nc5c4)nc3c2)CC1`, the result with Calf thymus DNA [17] was inactive.
As for `COc1ccc2nc(NC(c3cn(-c4ccccc4)nc3-c3ccccc3)c3c(O)ccc4ccccc34)sc2c1` (stereo not drawn), the IC50 with A549 stood at 44.6 µM; in the assay with MCF7, 40.8 µM; with HeLa [5], 8.29 µM.
Regarding `COc1ccc2nc(NC(c3cn(-c4ccccc4)nc3-c3ccc([N+](=O)[O-])cc3)c3c(O)ccc4ccccc34)sc2c1` (stereo not drawn), the outcome in the assay with Calf thymus DNA [2], in the assay on Calf thymus DNA [7], in the assay on Calf thymus DNA [8] and with Calf thymus DNA [12] was Active. Further, the IC50 with A549 is 22.5 µM; in the assay on MCF7, 13.3 µM; in the assay on HeLa [5], 5.54 µM; in the assay with HEK293 it was 46.5 µM. In addition, the outcome in the assay on Calf thymus DNA [9] was inactive. For the same compound, the inhibition result in assay [13] is “Active”. Besides, in the assay on Calf thymus DNA [16], the Activity came to 337 nm.
With `COc1ccc(-c2nn(-c3ccccc3)cc2C(Nc2nc3ccccc3s2)c2c(O)ccc3ccccc23)cc1` (stereo not drawn), the half-maximal inhibitory concentration (IC50) was 26.2 µM in the assay with A549, 17.5 µM in the assay with MCF7 and 9.34 µM in the assay with HeLa [5].
For `Oc1ccc2ccccc2c1C(Nc1nc2ccccc2s1)c1cn(-c2ccccc2)nc1-c1cccc(Cl)c1` (stereo not drawn) the same measures were 20.4 µM, 20.7 µM and 6.83 µM.
